Measured values from ChEMBL document CHEMBL3507680, “University of Dundee, Gates Library screen for HepG2 cell viability”.

Test: Human HepG2 cell viability assay in 384 well format
Assay type: toxicity, cell-based
Set-up: dose 125 nL, time 70.5 hour; concentration not given beside the values
Settings: HepG2 cells, read-out: Inhibition

| Structure (SMILES) | cytotoxicity at 70.5 h [%] |
| --- | --- |
| CN(CCCc1cc(-c2ccc(F)cc2)n[nH]1)C(=O)CCn1cncn1 | 1.64 |
| CCC(=O)N1CCC[C@]2(C(=O)N(C)C)CN(c3ccccn3)C[C@@H]2C1 | -9.46 |
| CS(=O)(=O)N1CCCn2nc(CNc3cc(C#N)ccn3)cc2C1 | -6.16 |
| Cc1nc(C2CCCN(C(=O)c3ccc(S(C)(=O)=O)cc3)C2)no1 (stereo unspecified) | -6.59 |
| O=C(NCc1cccs1)NCC1(O)CCc2ccccc2C1 (stereo unspecified) | -5.04 |
| Cc1noc(C)c1CCC(=O)N1CCCN(CC(N)=O)CC1 | -16.1 |
| CNc1ncc(C(=O)N2CC[C@@](O)(C3CCOCC3)[C@H](C)C2)cn1 | 5.71 |
| Cc1nn2c(-c3snnc3C)nnc2s1 | 27.8 |
| Cc1nc(C2CCN(C)CC2)cc(N2CCOc3ccc(Cl)cc3C2)n1 | 32.5 |
| N[C@H]1CN(S(=O)(=O)N2CCCCCC2)C[C@@H]1c1ccccc1 | 20 |
| c1cc(CN2C[C@@H]3OCCN(CC4CCCO4)[C@@H]3C2)cs1 (stereo partly specified) | -7.25 |
| COCCN1CCC(NCc2c(C(C)C)nn(C)c2N(C)C)CC1 | 24.2 |
| CN(CC(=O)NC1CC1)S(=O)(=O)c1ccc(F)cc1Cl | -3.95 |
| COc1ccc(C2CC(=O)Nc3c2cnn3C2CCCC2)cc1 (stereo unspecified) | -11.1 |
| Cc1cnn(CCC(=O)N2CCCN(c3nc(C)cs3)CC2)c1 | -3.54 |
| Cc1nccn1-c1ccc(NC(=O)C2CCCN2CC2CC2)cc1 (stereo unspecified) | -1.14 |
| CC(C)(C)c1nc(CN2CCOC(Cn3cccn3)C2)no1 (stereo unspecified) | 0.39 |
| Cc1ccc(-c2nnc(CN3CCCC(Cn4cncn4)C3)o2)cc1 (stereo unspecified) | -1.97 |
| Cc1nc(CN2CCN(C(=O)C(C(C)C)n3cncn3)CC2)cs1 (stereo unspecified) | -1.55 |

| Structure (SMILES) | cytotoxicity at 70.5 h [%] |
| --- | --- |
| CN(C)Cc1ccc(C(N)=O)cc1NC(=O)c1cccc(C#N)c1 | -4.53 |
| CCCc1nc(N2CCCN(c3ncccn3)CC2)c2cnn(C)c2n1 | 4.78 |
| c1ccc(-c2nc(CNCCn3cccn3)cs2)cc1 | -4.17 |
| CCCNC(=O)CN1CCCC1c1nc(Cc2ccc(F)cc2)no1 (stereo unspecified) | -4.46 |
| CS(=O)(=O)c1cn[nH]c1C1CCCCN1C(=O)c1ccsc1 (stereo unspecified) | -1.64 |
| CO[C@H]1CN(C(=O)c2cn3cc(C)ccc3n2)CC[C@@]12CCCO2 | -17.2 |
| Cc1ccc(C)c(CC(=O)NC2CCC(N3C(=O)CCC3=O)CC2)c1 (stereo unspecified) | -1.42 |
| CNc1cc(-c2ccccc2CN)c2cc[nH]c2n1 | 3.36 |
| O=C1O[C@@H]2CN(Cc3cccc(F)c3)C[C@@H]2N1CCCN1CCOCC1 | 9.24 |
| CN(Cc1cccc2ncccc12)C(=O)CCn1ccc(=O)[nH]c1=O | -1.13 |
| O=C(COCC1CC1)N1CCCC(n2ccnc2)C1 (stereo unspecified) | 5.1 |
| CCOCC(=O)N1C[C@@H](O)[C@H](N2CCN(c3ccccc3)CC2)C1 | -3.95 |
| COc1ccc(C2C3=C(CCCC3=O)Nc3nc(SC)nc(N)c32)cc1 (stereo unspecified) | 6.58 |
| Cc1nc(CO[C@H]2CN(C(=O)c3ccc[nH]3)[C@@H]3COC[C@H]23)cs1 | -13 |
| Cc1nc(COCc2cnc3n2CCN(C2CCC2)C3C)cs1 (stereo unspecified) | -12.4 |
| CCN(Cc1ccncc1)C(=O)CCn1c(C)cc2ccccc21 | -3.9 |
| Cn1nc(C2CNCCO2)cc1CCOc1cccc(C(F)(F)F)c1 (stereo unspecified) | 7.31 |
| c1cncc(-c2nc3c(c(NCC4(c5ccncc5)CC4)n2)CCC3)c1 | -0.48 |
| CCN(C(C)=O)c1nc(CN2CCN(c3nccs3)CC2)cs1 | 23.5 |

| Structure (SMILES) | cytotoxicity at 70.5 h [%] |
| --- | --- |
| CCn1cc(CNC2CCN(c3cccc(Cl)c3)C2)cn1 (stereo unspecified) | -3.2 |
| Cc1nc(C)c2c(n1)CCN(C(=O)CC1CC1)CC2 | -6.2 |
| COC(=O)N1CCCC(NC(=O)NCc2csc(C)n2)C1 (stereo unspecified) | -10.6 |
| Cc1ccc(OCc2nnc(SCC3CCCN(C)C3)o2)cc1 (stereo unspecified) | -8.56 |
| CSc1ccccc1CN1CCn2nc(CNC(=O)N(C)C)cc2C1 | -8.7 |
| Cc1cc(C)n(CC2CN(CC(=O)Nc3ccncc3)CCO2)n1 (stereo unspecified) | -2.52 |
| Cc1ccc(-c2nc(C3CCN(C(=O)c4ccn(C)n4)CC3)no2)cn1 | -10.5 |
| COc1cccnc1NC(=O)c1ccc(COCC(F)(F)F)cc1 | -8.83 |
| CC(C)CN1CCN(C(=O)c2ccncc2F)Cc2cccnc21 | -9.62 |
| COCCN1CCN(Cc2c(C3CCNCC3)[nH]c3ncccc23)CC1 | -2.48 |
| Cc1nn(CC(=O)O)c2nccc(-c3ccc(F)cc3)c12 | -8.88 |
| Cc1ccccc1OCCN(C)Cc1noc(CC(C)C)n1 | 4.63 |
| CC(C)Nc1nc2c(cc1C(=O)N(C)C)CCNCC2 | -6.7 |
| CC(C)NC(=O)C1CN(C(=O)Cc2ccccc2)CC12CCOCC2 (stereo unspecified) | -13.2 |
| CN(Cc1ccc(F)cc1F)CC(C)(CO)CO | -5.77 |
| Cn1cc(CN2CCN(Cc3nccn3C)CC2)cn1 | 29.1 |
| CC(NC(=O)NCCCN1CCc2ccccc2C1)c1nncn1C (stereo unspecified) | 7.19 |
| Cc1csc(N2CCN(Cc3ccccn3)CC2)n1 | -9.56 |
